Common to all, as to assay type: cell-based, human
The subject of assay [1] is A549 cells. Put plainly: MitoSOX Red mitochondrial superoxide, flow cytometry. As to conditions: A549, 2 μM, 8 h. How it is done:
(§1) FIG. 7: XB05 Induces ROS. (A) Cells were treated with either vehicle, tert-butyl hydrogen peroxide (TBHP, 100 μM, 3 h) or XB05 (8 h with 1 μM for U937 and Hs27, or 2 μM for A549), then stained with carboxy-H2DCFDA and PI for analysis by flow cytometry. Histograms illustrate representative data and bar graphs show the increase (over vehicle control) in the percentage of PI-negative (viable) cells with positive DCF fluorescence in each sample. Bars represent the mean+/−SEM from three independent experiments. […] (B) Cells were treated with XB05 as described in part A. As a positive control for superoxide production, cells were treated with Antimycin A (10 μM) for 1 h. Cells were harvested and subjected to MitoSOX™ Red staining for analysis by flow cytometry as described in Methods. Histograms illustrate representative data and bar graphs show the mean+/−SEM for three independent experiments.
(§2) Flow Cytometric Assays. Analyses were performed using a FACScalibur flow cytometer (BD Biosciences, Mountain View, Calif.) and FlowJo software (Tree Star, Inc., Ashland, Oreg.). Cells were treated as indicated in the figures and in the Brief Description of the Drawings. Cells were harvested by using TrypLE Cell Dissociation Reagent (Life Technologies). For cell death analyses, cells (adherent and detached cells) were stained with annexin-V-FITC and propidium iodide (PI) using the Apoptosis Detection Kit (BD Biosciences, San Jose, Calif.), according to the manufacturer's instructions. For cell-cycle distribution, cells were fixed, and stained with PI using the Cycle Test Plus kit (Becton Dickinson, Franklin Lakes, N.J.). For detection of γ-H2AX, cells were washed with PBS and fixed in 4% paraformaldehyde in PBS for 10 min at 37° C. Cells were then permeabilized in 90% methanol for 30 min on ice, blocked in 2% BSA (w/v in PBS) for 1 h, and incubated with γ-H2AX antibody or rabbit IgG isotype control (Santa Cruz, sc-2027) (0.3 μg/mL in 1% BSA) for 1 h. […] Cells were then washed twice with PBS, re-suspended at a density of 1×10^6 cells/mL in PBS and analyzed by flow cytometry.
A general note: A flow cytometer gives signals particle by particle.

Assay [2] deals with Hs27 cells. Described as above. As to conditions: Hs27, 1 μM, 8 h. How it is done: as §1, §2
In assay [3] the test system is U937 cells. The assay is described as above. As to conditions: U937, 1 μM, 8 h. How it is done:
as §1, §2

Assay [4] concerns A549 cells. Put plainly: Carboxy-H2DCFDA ROS detection, flow cytometry. Particulars: A549, 2 μM, 8 h. How it is done:
as §1, §2

The subject of assay [5] is Hs27 cells. The assay is described as follows: Carboxy-H2DCFDA ROS detection, flow cytometry. Particulars: Hs27, 1 μM, 8 h. As for the experimental part: as §1, §2
Assay [6] concerns U937 cells. Put plainly: Carboxy-H2DCFDA ROS detection, flow cytometry. Particulars: U937, 1 μM, 8 h. How it is done: as §1, §2
The subject of assay [7] is A549 cells. The assay is described as follows: Western blot for Nrf2 in nuclear extracts. As to conditions: A549, 2 μM, 8 or 24 h. How it is done:
(§3) FIG. 8: XB05 Modulates Cellular Stress Responses. (A) A luminescence-based assay for reduced glutathione (GSH) content in cells treated 24 h with XB05 (1 μM for U937 and Hs27, or 2 μM for A549), in the absence or presence of 5 mM GSH. Some cells were treated with buthionine sulfoximine (BSO, 200 μM) plus diethyl maleate (DEM, 1 mM) for 3 h as a positive control for GSH depletion. Bar graph indicates mean+/−SEM from three independent experiments. […] (C) Western blot for Nrf2 in nuclear extracts from cells treated as in part A for either 8 h or 24 h. Membranes were stripped and reprobed for Ku-70 as a loading control. (D) Western blot for phospho-eIF2α (Ser51), total eIF2-α, BiP/Grp78, and GAPDH (loading control) in whole cell extracts from cell lines treated as indicated for 24 h with concentrations of XB05 described in part A. Thapsigargin (TG, 2 μM) was used as a positive control for induction of endoplasmic reticulum (ER) stress.
(§4) Cell Extracts. […] Nuclear cells extracts were isolated using the NE-PER Nuclear and Cytoplasmic Extraction Kit (Thermo Scientific, Rockford, Ill.), per the manufacturer's protocol. For total cell extract, cells were lysed in RIPA buffer (Thermo Scientific) containing protease inhibitor cocktail III and phosphatase inhibitor cocktail (Calbiochem, Billerica, Mass.) for 5 min at 4° C., and then cleared by centrifugation at 16,000 g for 10 min at 4° C. All protein concentrations were determined using the DC Protein Assay™ kit (BioRad, Hercules, Calif.).
(§5) Western Blotting. […] Proteins were detected using the following primary antibody concentrations: PARP-1 (1:1000), cleaved caspase-3 (1:1000), γ-H2AX (Ser139) ([…]), phospho-eIF2α (Ser51) (1:1000), eIF2α (1:1000), Bip (1:1000), Nrf2 (1:1000), Ku-70 (1:1000) and GAPDH (1:1000). […] Where indicated, band intensities were quantified using the UN-SCAN-IT Gel digitizing software (Silk Scientific, Orem Utah) and normalized to vehicle control.

Assay [8] has as its system Hs27 cells. The assay is described as follows: Western blot for Nrf2 in nuclear extracts. Particulars: Hs27, 1 μM, 8 or 24 h. How it is done: as §3, §4, §5
The subject of assay [9] is U937 cells. The assay is described as follows: Western blot for Nrf2 in nuclear extracts. As to conditions: U937, 1 μM, 8 or 24 h. How it is done:
as §3, §4, §5
(In general: In western blotting, separated proteins are transferred to a membrane and probed.)

`CCCCCC(O)C#CC(F)(F)Br` (stereo not drawn) [XB05]: the “MitoSOX Red fluorescence vs vehicle” value is recorded as “increase in MitoSOX™ Red fluorescence” in [1], “not in Hs27 non-malignant fibroblasts” in [2] and “increase in MitoSOX™ Red fluorescence” in assay [3]. For the same molecule, the “levels of ROS (DCF-positive viable cells)” value in assay [4], in assay [5] and in assay [6] was “elevated” in each case. The results for the “nuclear Nrf2” value in [7], in [8] and in [9] were “slight increase in nuclear levels of Nrf2”, “no change” and “decrease in nuclear Nrf2”, respectively.

The values above are taken from patent US9737493B2, “Compositions and methods for modulating DNMT1 inhibitor activity” (University of Louisville Research Foundation, Inc., priority 2012, dated 2017).
